Laboratory results from ChEMBL document CHEMBL4715883, “Novel BuChE-IDO1 inhibitors from sertaconazole: Virtual screening, chemical optimization and molecular modeling studies” (Bioorg Med Chem Lett, 2021).

Columns and labels:
[1] = target: Indoleamine 2,3-dioxygenase 1 (Homo sapiens, UniProt P14902); test: Inhibition of human N-terminal IDO1 expressed in Escherichia coli BL21 A1 cells using L-tryptophan as substrate measured after 30 mins by HPLC analysis
Cholinesterase = Cholinesterase (Equus caballus, UniProt P81908); test: Inhibition of equine serum BuChE using butyrylthiocholine iodide as substrate preincubated for 5 mins followed by substrate addition and measured after 2 mins by Ellman's method; type: cell-free
Sequence of Cholinesterase (P81908 whole entry): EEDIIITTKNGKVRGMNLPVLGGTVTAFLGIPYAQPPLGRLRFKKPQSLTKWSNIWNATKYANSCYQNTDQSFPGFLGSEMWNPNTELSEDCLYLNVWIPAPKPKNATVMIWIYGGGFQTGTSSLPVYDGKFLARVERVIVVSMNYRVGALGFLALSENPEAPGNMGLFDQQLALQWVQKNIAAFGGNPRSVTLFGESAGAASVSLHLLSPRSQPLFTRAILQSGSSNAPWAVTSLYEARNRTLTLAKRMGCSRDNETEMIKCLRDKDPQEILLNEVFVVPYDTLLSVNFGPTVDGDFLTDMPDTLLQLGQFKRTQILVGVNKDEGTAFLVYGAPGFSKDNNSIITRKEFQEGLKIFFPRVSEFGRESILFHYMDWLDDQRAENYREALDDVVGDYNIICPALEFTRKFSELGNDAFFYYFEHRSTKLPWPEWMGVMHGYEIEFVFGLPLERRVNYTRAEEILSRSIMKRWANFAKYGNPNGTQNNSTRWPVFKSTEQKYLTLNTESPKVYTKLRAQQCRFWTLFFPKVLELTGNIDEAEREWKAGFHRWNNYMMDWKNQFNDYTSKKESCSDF

[2] = target: Acetylcholinesterase (Electrophorus electricus) (UniProt O42275); test: Inhibition of electric eel […] iodide as substrate at 50 uM preincubated for 5 mins followed by substrate addition and measured after 2 mins by Ellman's method relative to control; conditions: time 7.0 min
Sequence of Acetylcholinesterase (Electrophorus electricus) (O42275 24-633 limits assumed): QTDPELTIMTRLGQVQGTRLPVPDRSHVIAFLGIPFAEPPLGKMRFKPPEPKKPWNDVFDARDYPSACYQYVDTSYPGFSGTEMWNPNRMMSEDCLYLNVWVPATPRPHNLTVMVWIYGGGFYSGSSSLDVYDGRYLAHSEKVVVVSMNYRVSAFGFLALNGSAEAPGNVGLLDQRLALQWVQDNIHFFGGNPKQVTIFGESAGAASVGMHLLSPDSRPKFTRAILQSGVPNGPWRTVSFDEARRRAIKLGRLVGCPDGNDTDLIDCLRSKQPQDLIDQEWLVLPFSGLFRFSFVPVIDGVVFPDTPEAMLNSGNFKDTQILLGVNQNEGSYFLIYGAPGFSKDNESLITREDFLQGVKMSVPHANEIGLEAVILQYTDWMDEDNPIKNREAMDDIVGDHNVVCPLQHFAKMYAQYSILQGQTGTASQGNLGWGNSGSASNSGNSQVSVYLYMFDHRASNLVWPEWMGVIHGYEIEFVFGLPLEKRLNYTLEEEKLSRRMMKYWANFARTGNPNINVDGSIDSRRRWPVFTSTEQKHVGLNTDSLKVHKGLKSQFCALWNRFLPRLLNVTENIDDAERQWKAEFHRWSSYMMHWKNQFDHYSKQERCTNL

[3] = Cytotoxicity against human SH-SY5Y cells assessed as reduction in cell viability after 48 hrs by MTT assay; type: cell-based; conditions: read-out: LD50
Acetylcholinesterase = Acetylcholinesterase (Electrophorus electricus, UniProt O42275); test: Inhibition of electric eel […] iodide as substrate preincubated for 5 mins followed by substrate addition and measured after 2 mins by Ellman's method
Sequence of Acetylcholinesterase (O42275 whole entry): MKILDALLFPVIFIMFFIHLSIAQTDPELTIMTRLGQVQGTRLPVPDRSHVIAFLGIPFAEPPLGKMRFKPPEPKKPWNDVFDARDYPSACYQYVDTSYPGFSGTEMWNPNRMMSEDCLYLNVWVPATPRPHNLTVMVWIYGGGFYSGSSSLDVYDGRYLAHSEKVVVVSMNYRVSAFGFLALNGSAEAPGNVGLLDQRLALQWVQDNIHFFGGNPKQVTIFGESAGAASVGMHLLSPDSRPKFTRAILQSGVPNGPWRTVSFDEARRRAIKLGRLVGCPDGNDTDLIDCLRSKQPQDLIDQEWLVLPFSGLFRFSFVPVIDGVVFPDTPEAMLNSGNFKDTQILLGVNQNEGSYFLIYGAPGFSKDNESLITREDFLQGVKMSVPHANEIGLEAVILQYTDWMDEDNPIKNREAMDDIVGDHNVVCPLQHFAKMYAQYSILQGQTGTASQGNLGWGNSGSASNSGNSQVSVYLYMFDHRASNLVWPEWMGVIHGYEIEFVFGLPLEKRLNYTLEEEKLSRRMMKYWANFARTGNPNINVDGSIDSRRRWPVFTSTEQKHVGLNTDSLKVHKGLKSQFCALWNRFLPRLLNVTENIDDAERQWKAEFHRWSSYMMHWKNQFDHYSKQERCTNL

Homo sapiens [4] = species on record: Homo sapiens; test: inhibition of amyloid beta (1 to 42) (unknown origin) aggregation at 50 uM by ThT fluorescence assay relative to control
Homo sapiens [5] = species on record: Homo sapiens; test: Inhibition of amyloid beta (1 to 42) (unknown origin) aggregation by ThT fluorescence assay; conditions: dose 10-50 µM
[6] = Selectivity index, ratio of IC50 for inhibition of electric eel […] iodide as substrate to IC50 for inhibition of equine serum BuChE using butyrylthiocholine iodide as substrate

Sequence of Indoleamine 2,3-dioxygenase 1 (P14902 whole entry): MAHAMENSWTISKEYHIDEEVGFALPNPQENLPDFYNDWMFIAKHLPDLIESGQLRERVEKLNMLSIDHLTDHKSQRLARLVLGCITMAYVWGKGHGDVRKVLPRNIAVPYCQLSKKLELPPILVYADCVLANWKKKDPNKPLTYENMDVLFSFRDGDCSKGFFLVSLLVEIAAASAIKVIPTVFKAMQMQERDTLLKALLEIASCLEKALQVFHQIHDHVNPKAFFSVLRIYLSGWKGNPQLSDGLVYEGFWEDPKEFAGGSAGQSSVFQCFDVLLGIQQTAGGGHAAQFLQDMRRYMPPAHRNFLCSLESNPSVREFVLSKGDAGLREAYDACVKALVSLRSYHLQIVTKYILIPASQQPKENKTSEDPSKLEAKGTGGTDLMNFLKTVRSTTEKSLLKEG

| SMILES | IC50 [1] [µM] | IC50 (Cholinesterase) [µM] | inhibition [2] [%] | CC50 at 48 h [3] [µM] | IC50 (Acetylcholinesterase) [µM] | inhibition (Homo sapiens [4]) [%] | inhibition (Homo sapiens [5]) | Ratio IC50 [6] |
| --- | --- | --- | --- | --- | --- | --- | --- | --- |
| Fc1cc(C(Cn2ccnc2)OCc2nc3ccccc3s2)ccc1Cl (stereo not drawn) | 57.7 | 6.2 | 22.1 | – | – | – | – | – |
| Clc1ccc(C(Cn2ccnc2)OCc2nc3ccccc3s2)c(Cl)c1 (stereo not drawn) | 6.7 | 3.9 | – | 11.8 | 13.1 | 52.2 | Dose-dependent effect | 3.4 |
| Clc1ccc(C(Cn2ccnc2)OCc2nc3ccccc3o2)c(Cl)c1 (stereo not drawn) | 136 | 17.6 | – | – | 44.6 | – | – | 2.5 |
| Clc1ccc(C(Cn2ccnc2)OCc2cccnc2)c(Cl)c1 (stereo not drawn) | 94.5 | 41.7 | – | – | 11.9 | – | – | 0.3 |
| Fc1ccc(C(Cn2ccnc2)OCc2nc3ccccc3s2)cc1F (stereo not drawn) | 35.4 | 1.1 | 7.2 | – | – | – | – | > 50 |
| Clc1ccc(C(Cn2ccnc2)OCc2ccsc2)c(Cl)c1 (stereo not drawn) | 63.6 | 31.9 | – | – | 18.3 | – | – | 0.6 |
| Clc1ccc(C(Cn2ccnc2)OCc2cc3ccccc3s2)c(Cl)c1 (stereo not drawn) | 17.7 | 1.4 | – | – | 15.5 | – | – | 11 |
| Clc1ccc(COC(Cn2ccnc2)c2ccc(Cl)cc2Cl)c(Cl)c1 (stereo not drawn) [MICONAZOLE] | 2.9 | 4.3 | – | – | 2.4 | – | – | 0.6 |
| Brc1ccc(C(Cn2ccnc2)OCc2nc3ccccc3s2)cc1 (stereo not drawn) | 49.3 | 10 | 21 | – | – | – | – | – |
| Clc1ccc(C(Cn2ccnc2)OCc2nc3ccccc3s2)cc1 (stereo not drawn) | 87 | 7.9 | 17.8 | – | – | – | – | – |
| Clc1ccc(C(Cn2ccnc2)OCc2ccc3ccccc3c2)c(Cl)c1 (stereo not drawn) | 22.3 | 0.09 | – | 9.8 | 4.3 | 48.3 | Dose-dependent effect | 47.8 |
| Clc1ccc(C(Cn2ccnc2)OCc2cccc3ccccc23)c(Cl)c1 (stereo not drawn) | 48.6 | 4 | – | – | 90.4 | – | – | 22.6 |
| Fc1ccc(C(Cn2ccnc2)OCc2nc3ccccc3s2)cc1 (stereo not drawn) | 73.6 | 3.9 | 11.4 | – | – | – | – | – |
| Clc1ccccc1C(Cn1ccnc1)OCc1nc2ccccc2s1 (stereo not drawn) | 59.6 | 11.3 | 47.4 | – | 58.7 | – | – | – |
| Brc1cccc(C(Cn2ccnc2)OCc2nc3ccccc3s2)c1 (stereo not drawn) | 3.7 | 15.1 | 25.5 | – | – | – | – | – |
| Clc1cccc(C(Cn2ccnc2)OCc2nc3ccccc3s2)c1 (stereo not drawn) | 25 | 6 | 19.9 | – | – | – | – | – |
| Fc1ccc(C(Cn2ccnc2)OCc2nc3ccccc3s2)c(F)c1 (stereo not drawn) | 133 | 5.7 | 12.4 | – | – | – | – | – |
| Clc1ccc(C(Cn2ccnc2)OCc2nc3ccccc3s2)cc1Cl (stereo not drawn) | 3 | 1 | 5 | – | – | – | – | > 50 |
| Clc1ccc(C(Cn2ccnc2)OCc2csc3c(Cl)cccc23)c(Cl)c1 (stereo not drawn) [SERTACONAZOLE] | 3.8 | 7.4 | – | – | – | – | – | – |
